pEC50: −log10 of the molar value. Read-outs that look alike come from different tables or passages of the source.
Target: T1, human GPR119 (Homo sapiens, UniProt Q8TDV5)
T1 sequence (Q8TDV5 1-335): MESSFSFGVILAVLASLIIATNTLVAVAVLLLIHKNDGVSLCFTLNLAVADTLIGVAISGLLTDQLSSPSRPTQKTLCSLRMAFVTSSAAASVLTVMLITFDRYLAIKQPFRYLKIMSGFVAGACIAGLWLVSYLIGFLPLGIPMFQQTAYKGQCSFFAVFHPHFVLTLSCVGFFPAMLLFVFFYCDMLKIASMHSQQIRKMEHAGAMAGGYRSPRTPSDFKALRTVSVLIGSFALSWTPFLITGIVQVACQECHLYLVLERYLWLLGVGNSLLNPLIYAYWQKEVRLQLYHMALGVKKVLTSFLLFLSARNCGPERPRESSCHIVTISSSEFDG
Test: Intracellular cAMP increase in human GPR119 introduced cells (Pharmacological Experiments 1 and 2)
Format: cell-based
Settings: for GPR119 agonist effect: result in words, refers to Tables 12 and 13
Description: The GPR119 agonist effect is studied by measuring the effect of an analyte on increase of intracellular amount of cAMP in human GPR119 introduced cells. The testing method is described below.
Human GPR119 gene (NM 178471) is purchased from ATCC (ATCC No. 10807349), and is amplyfied according to PCR to form BamHI site at 5′ side and Apa I site at 3′ side. The forward side primer is […] (sequence No. 1), and the reverse side primer is […] (sequence No. 2). The PCR conditions are described below.
(§1) The double-stranded DNA is thermally denatured using a DNA polymerase (KOD-Plus-Ver. 2; TOYOBO #KOD-211) at 98° C. for 10 seconds in one cycle. The denatured single-stranded DNA is annealed with the primers at 55° C. for 30 seconds. The DNA is subjected to an extension reaction at 68° C. for 1 minute and 15 seconds. The above-mentioned steps are repeated in 35 cycles. The PCR product is inserted into pcDNA5/FRT/TO (Invitrogen #V6520-20) plasmid. Flp-in T-Rex-293 cells (Invitorogen #R78007) are transfected with the obtained plasmid. The method of transfection is conducted in accordance with the protocol of the product.
The stable cell line expressing human GPR119 prepared in the above-mentioned method is plated on a 96-well plate at the concentration of 2,500 cells/well using Dulbecco's Modified Eagle Medium (DMEM) containing 10% fetal bovine serum (FBS). Twenty-four hours after plating, tetracyclin (Invitrogen #Q10019) is added at the final concentration of 20 ng/mL to induce hGPR119 gene expression. Twenty-four hours after, the medium is removed, and the cells are stimulated with an assay buffer (0.5 mM IBMX PBS(−)) containing the test compound at 37° C. for 30 minutes. The amount of the intracellular cAMP is measured using a commercially available kit (HitHunter™ cAMP XS+ Assay: GE Healthcare #90007503) and a reader (FLUOstar Optima: BMG LABTECH). The test compound is dissolved in 100% DMSO, and added at the final concentration of 1%.
Human GPR119 gene (NM 178471) was purchased from ATCC (ATCC No. 10807349), and is amplyfied according to PCR to form BamHI site at 5′ side and Apa I site at 3′ side. The primers were […] (sequence No. 1) and […] (sequence No. 2). The PCR conditions are described below.
as §1, with “was” for “is”, “were” for “are”
The stable cell line expressing human GPR119 prepared in the above-mentioned method was plated on a 96-well plate at the concentration of 2,500 cells/well using Dulbecco's Modified Eagle Medium (DMEM) containing 10% fetal bovine serum (FBS). Twenty-four hours after plating, tetracyclin (Invitrogen #Q10019) was added at the final concentration of 20 ng/mL to induce hGPR119 gene expression. Twenty-four hours after, the medium was removed, and the cells were stimulated with an assay buffer (0.5 mM IBMX PBS (−)) containing the test compound at 37° C. for 30 minutes. The amount of the intracellular cAMP was measured using a commercially available kit (HitHunter™ cAMP XS+ Assay: GE Healthcare #90007503) and a reader (FLUOstar Optima: BMG LABTECH). The test compound was dissolved in 100% DMSO, and added at the final concentration of 1%.
The examination was performed by the method similar to Example 61 Pharmacological experiment 1-(1), 1-(2).

[1] = Table 13, Pharmacological experiment 2, method similar to Example 61, read-out: EC50
[2] = Table 12, Flp-in T-Rex-293 cells stably expressing hGPR119, intracellular cAMP, 37° C. for 30 minutes, read-out: EC50

SMILES | pEC50 | further results
CC(C)(C)OC(=O)N1CCC(c2cnc(Cn3ccc4cc(-n5cnnn5)cc(F)c43)nc2)CC1 [Example 49, tert-Butyl 4-[2-[7-fluoro-5-(tetrazol-1-yl)indol-1-ylmethyl]pyrimidin-5-yl]piperidine-1-carboxylate] | 7.52 | 
CC(C)OC(=O)N1CCC(c2cnc(Cn3ccc4cc(-n5cnnn5)cc(F)c43)cn2)CC1 [Example 38, Isopropyl 4-[5-[7-fluoro-5-(tetrazol-1-yl)indol-1-ylmethyl]pyrazin-2-yl]piperidine-1-carboxylate] | 7.78 | 
Fc1cc(-n2cnnn2)cc2ccn(Cc3cnc(C4CCN(c5ncc(Br)cn5)CC4)cn3)c12 [Example 54, 5-Bromo-2-[4-[5-[7-fluoro-5-(tetrazol-1-yl)indol-1-ylmethyl]pyrazin-2-yl]piperidin-1-yl]pyrimidine] |  | pEC50 [1]: 7.85
CC(C)OC(=O)N1CC=C(c2cnc(Cn3ccc4cc(S(C)(=O)=O)c(F)c(F)c43)cn2)C(C)C1 (centres unmarked) [Example 29, Isopropyl 4-[5-(6,7-difluoro-5-methanesulfonylindol-1-ylmethyl)pyrazin-2-yl]-3-methyl-3,6-dihydro-2H-pyridine-1-carboxylate] | 7.45 | 
CC(C)(C)OC(=O)N1CCC(c2cnc(Cn3ccc4cc(-n5cnnn5)cc(F)c43)cn2)CC1 [Example 34, tert-Butyl 4-[5-[7-fluoro-5-(tetrazol-1-yl)indol-1-ylmethyl]pyrazin-2-yl]piperidine-1-carboxylate] | 8.54 | GPR119 agonist effect: excellent GPR119 agonist effect
CC(C)(C)OC(=O)N1CCC(c2cnc(Cn3ccc4cc(S(C)(=O)=O)cnc43)nc2)CC1 [Example 46, tert-Butyl 4-[2-(5-methanesulfonyl-1H-pyrrolo[2,3-b]pyridin-1-ylmethyl)pyrimidin-5-yl]piperidine-1-carboxylate] | 7.02 | 
CC1CN(C(=O)OC(C)(C)C)CC=C1c1cnc(Cn2ccc3cc(S(C)(=O)=O)cnc32)cn1 (centres unmarked) [Example 15, tert-Butyl 4-[5-(5-methanesulfonyl-1H-pyrrolo[2,3-b]pyridin-1-ylmethyl)pyrazin-2-yl]-3-methyl-3,6-dihydro-2H-pyridine-1-carboxylate] |  | pEC50 [2]: 6.90
CC1CN(C(=O)OC(C)(C)C)CC=C1c1cnc(Cn2ccc3cc(S(C)(=O)=O)c(F)c(F)c32)cn1 (centres unmarked) [Example 21, tert-Butyl 4-[5-(6,7-difluoro-5-methanesulfonylindol-1-ylmethyl)pyrazin-2-yl]-3-methyl-3,6-dihydro-2H-pyridine-1-carboxylate] | 7.67 | GPR119 agonist effect: excellent GPR119 agonist effect
CC1CN(C(=O)OC(C)(C)C)CC=C1c1cnc(COc2ccc(-n3cncn3)cc2)cn1 (centres unmarked) [Example 17, tert-Butyl 3-methyl-4-[5-[4-(1,2,4-triazol-1-yl)phenoxymethyl]pyrazin-2-yl]-3,6-dihydro-2H-pyridine-1-carboxylate] |  | pEC50 [2]: 6.91
CC(C)(C)OC(=O)N1CCC(c2cnc(Cn3ccc4cc(S(C)(=O)=O)cc(F)c43)cn2)CC1 [Example 28, tert-Butyl 4-[5-(7-fluoro-5-methanesulfonylindol-1-ylmethyl)pyrazin-2-yl]piperidine-1-carboxylate] | 8.12 | GPR119 agonist effect: excellent GPR119 agonist effect
CC1CN(C(=O)OC(C)(C)C)CC=C1c1cnc(Cn2ccc3c(F)c(S(C)(=O)=O)c(F)cc32)cn1 (centres unmarked) [Example 19, tert-Butyl 4-[5-(4,6-difluoro-5-methanesulfonylindol-1-ylmethyl)pyrazin-2-yl]-3-methyl-3,6-dihydro-2H-pyridine-1-carboxylate] | 7.08 | 
CC(C)(C)OC(=O)N1C2CCC1CC(c1cnc(COc3ccc(S(C)(=O)=O)cc3)cn1)C2 (centres unmarked) [Example 11, tert-Butyl 3-[5-(4-methanesulfonylphenoxymethyl)pyrazin-2-yl]-8-azabicyclo[3.2.1]octane-8-carboxylate] | 7.17 | 
CC(C)(C)OC(=O)N1CCC(c2cnc(COc3ccc(S(C)(=O)=O)cc3)nc2)CC1 [Example 1, tert-Butyl 4-[2-(4-methanesulfonylphenoxymethyl)pyrimidin-5-yl]piperidine-1-carboxylate] |  | pEC50 [2]: 6.50
CCc1cnc(N2CCC(c3cnc(Cn4ccc5cc(-n6cnnn6)cc(F)c54)cn3)CC2)nc1 [Example 42, 5-Ethyl-2-[4-[5-[7-fluoro-5-(tetrazol-1-yl)indol-1-ylmethyl]pyrazin-2-yl]piperidin-1-yl]pyrimidine] |  | pEC50 [1]: 8.51; GPR119 agonist effect: excellent GPR119 agonist effect
CC(C)(C)OC(=O)N1C2C=C(c3cnc(COc4ccc(S(C)(=O)=O)cc4)cn3)CC1CC2 (centres unmarked) [Example 10, tert-Butyl 3-[5-(4-methanesulfonylphenoxymethyl)pyrazin-2-yl]-8-azabicyclo[3.2.1]oct-2-ene-8-carboxylate] | 7.00 | 
CC(C)OC(=O)N1CC=C(c2cnc(Cn3ccc4c(F)c(S(C)(=O)=O)c(F)cc43)cn2)C(C)C1 (centres unmarked) [Example 30, Isopropyl 4-[5-(4,6-difluoro-5-methanesulfonylindol-1-ylmethyl)pyrazin-2-yl]-3-methyl-3,6-dihydro-2H-pyridine-1-carboxylate] |  | pEC50 [1]: 6.86
CC(C)(C)OC(=O)N1CC=C(c2cnc(COc3ccc(-n4cnnn4)cc3F)cn2)CC1 [Example 12, tert-Butyl 4-[5-[2-fluoro-4-(tetrazol-1-yl)phenoxymethyl]pyrazin-2-yl]-3,6-dihydro-2H-pyridine-1-carboxylate] | 7.25 | 
CC(C)(C)OC(=O)N1CCC(c2cnc(Cn3ccc4cc(S(C)(=O)=O)ccc43)nc2)CC1 [Example 4, tert-Butyl 4-[2-(5-methanesulfonylindol-1-ylmethyl)pyrimidin-5-yl]piperidine-1-carboxylate] | 7.20 | 
CS(=O)(=O)c1cc(F)c2c(ccn2Cc2cnc(C3CCN(c4ncc(Br)cn4)CC3)cn2)c1 [Example 51, 5-Bromo-2-[4-[5-(7-fluoro-5-methanesulfonylindol-1-ylmethyl)pyrazin-2-yl]piperidine-1-yl]pyrimidine] |  | pEC50 [1]: 8.27; GPR119 agonist effect: excellent GPR119 agonist effect
CC(C)(C)OC(=O)N1CC=C(c2cnc(COc3ccc(S(C)(=O)=O)cc3)cn2)CC1 [Example 2, tert-Butyl 4-[5-(4-methanesulfonylphenoxymethyl)pyrazin-2-yl]-3,6-dihydro-2H-pyridine-1-carboxylate] | 7.12 | 
CC1CN(C(=O)OC(C)(C)C)CC=C1c1cnc(COc2ccc(S(C)(=O)=O)c(F)c2F)nc1 (centres unmarked) [Example 24, tert-Butyl 4-[2-(2,3-difluoro-4-methanesulfonylphenoxymethyl)pyrimidin-5-yl]-3-methyl-3,6-dihydro-2H-pyridine-1-carboxylate] |  | pEC50 [2]: 6.95

Source: patent US20190192510A1, “GPR119 AGONIST” (NIPPON CHEMIPHAR CO., LTD., priority 2010, published 2019)
